Consider two molecules from PMC4967823, “A single amino acid substitution in a chitinase of the legume Medicago truncatula is sufficient to gain Nod-factor hydrolase activity” (Open Biology, 2016).

Usually Km stands for the substrate concentration at which the rate is half of its maximum.

The target in the test is T1, MtCHIT5b (Medicago truncatula, UniProt A0A072UR65).
T1 construct: gene CHIT5B; without predicted signal peptide, N-terminal 6xHis tag (pET28b or pET32a for variants), E. coli BL21(DE3), Ni-NTA
T1 sequence (A0A072UR65 27-379): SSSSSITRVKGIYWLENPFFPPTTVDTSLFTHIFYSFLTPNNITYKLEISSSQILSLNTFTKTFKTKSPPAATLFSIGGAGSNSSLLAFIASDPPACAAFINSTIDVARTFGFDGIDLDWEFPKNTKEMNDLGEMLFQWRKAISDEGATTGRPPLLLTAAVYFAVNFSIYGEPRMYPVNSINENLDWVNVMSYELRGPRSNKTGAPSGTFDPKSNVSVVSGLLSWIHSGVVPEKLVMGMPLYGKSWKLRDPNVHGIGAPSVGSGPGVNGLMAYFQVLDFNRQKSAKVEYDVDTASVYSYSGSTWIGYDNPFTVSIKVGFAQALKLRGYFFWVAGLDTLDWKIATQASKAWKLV
Nature of the test: reverse-phase HPLC (C18) hydrolysis assay. In kind it is biochemical. To be noted: 25 mM sodium acetate pH 5.0, 37 C. From the text: reverse-phase HPLC (C18) hydrolysis assay on MtCHIT5b

Turning to `CCCCCC/C=C\CCCCC/C=C/C(=O)N[C@H]1[C@H](O[C@H]2[C@H](O)[C@@H](NC(C)=O)[C@H](O[C@H]3[C@H](O)[C@@H](NC(C)=O)[C@H](O[C@H]4[C@H](O)[C@@H](NC(C)=O)C(O)O[C@@H]4COS(=O)(=O)O)O[C@@H]3CO)O[C@@H]2CO)O[C@H](COC(C)=O)[C@@H](O)[C@@H]1O` (some centres unmarked) [NodSm-IV(C16 : 2, Ac, S)], the Km was determined as 96.9 ± 18.8 µM.
For `CCCCCC/C=C\CCCCC/C=C/C(=O)N[C@H]1[C@H](O[C@H]2[C@H](O)[C@@H](NC(C)=O)[C@H](O[C@H]3[C@H](O)[C@@H](NC(C)=O)[C@H](O[C@H]4[C@H](O)[C@@H](NC(C)=O)C(O)O[C@@H]4COS(=O)(=O)O)O[C@@H]3CO)O[C@@H]2CO)O[C@H](CO)[C@@H](O)[C@@H]1O` (some centres unmarked) [NodSm-IV(C16 : 2, S)] the value was 58.6 ± 11.4 µM.
